Source: PubChem BioAssay AID720587 (Broad Institute, 2013)
The source made the active and inactive calls.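 The calls were made as follows: active = fitted curve reaches -35% activity change at a concentration below twice the top valid dose tested; inactive = the rest, including effects opposite to the expected direction.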

Assay: EWS/Fli1-dependent A673 cell killing, confirmation, CellTiter-Glo luminescence, cherry-pick retest (AID 720587)
Conditions: A673 Ewing sarcoma viability, CellTiter-Glo ATP luminescence, 72 h; at 23.5 µM (top of the series)
With `N#C[C@H]1N[C@H](CO)[C@H]1c1ccc(C#Cc2ccccc2F)cc1` the activity change, negative = cytotoxicity was 3.42% (inactive).
In the case of `O=S(=O)(c1ccc(F)cc1)N1C[C@H]2[C@@H](c3ccccc31)[C@H](CO)N2Cc1ccccc1Cl`, the activity change, negative = cytotoxicity is reported as -16.4% (inactive).
With `COC(=O)C[C@@H]1CC[C@@H]2[C@H](COc3ccc(NC(=O)c4cccc(F)c4)cc3C(=O)N2C)O1` the activity change, negative = cytotoxicity was -1.57% (inactive).

Same assay, conditions: A673 Ewing sarcoma viability, CellTiter-Glo ATP luminescence, 72 h; at 26 µM (top of the series)
In the case of `O=C(Cc1nn[nH]n1)c1ccccc1O`, the activity change, negative = cytotoxicity is reported as 0.33% (inactive).
In the case of `Nc1ccc(-c2cc3ccccc3c(=O)o2)cc1`, the activity change, negative = cytotoxicity is reported as -2.08% (inactive).
In the case of `COc1ccccc1/C=C1\SC(=S)N(CCC(=O)Nc2cc(C)on2)C1=O`, the activity change, negative = cytotoxicity is reported as 6.59% (inactive).
For `COc1ccc2nc(-c3ccc(F)cc3)sc2c1`, the activity change, negative = cytotoxicity was -14.9% (inactive).
With `C[C@@H]1CN([C@H](C)CO)C(=O)c2cc(NS(=O)(=O)c3ccc(Cl)cc3)ccc2O[C@@H]1CN(C)Cc1ccc(Cl)c(Cl)c1` the activity change, negative = cytotoxicity was -17.2% (inactive).
With `O=C(CN1C(=O)c2ccccc2S1(=O)=O)c1ccc(F)cc1` the activity change, negative = cytotoxicity was -6.39% (inactive).
With `COc1cc(/C=N/NC(=O)c2csc3c2CCCC3)cc(OC)c1O` the activity change, negative = cytotoxicity was 0.143% (inactive).
For `COC(=O)c1c(C)[nH]c(/C=N/Nc2ccccc2)c1C`, the activity change, negative = cytotoxicity was 5.78% (inactive).
In the case of `CCCCOc1ccc(NC(=O)C(=O)NCCCn2ccnc2)cc1`, the activity change, negative = cytotoxicity is reported as -2.77% (inactive).
In the case of `Cc1cc2sc3ccc(C#CC4(O)CCCCC4)cc3c(=O)c2cc1C`, the activity change, negative = cytotoxicity is reported as -2.73% (inactive).
In the case of `C/C(=N\Nc1cccc2cccnc12)c1ccccn1`, the activity change, negative = cytotoxicity is reported as -0.624% (inactive).
In the case of `O=C1CCCC2=C1C(c1ccccn1)Nc1ccc(C(=O)c3ccccc3)cc1N2` (stereo unspecified), the activity change, negative = cytotoxicity is reported as 3.59% (inactive).
With `CCNC(=O)c1cccc(S(=O)(=O)N2CCCCCC2)c1` the activity change, negative = cytotoxicity was 0.705% (inactive).
For `CCc1ccc(Cn2ncc3c(C(=O)O)cc(C)nc32)cc1`, the activity change, negative = cytotoxicity was 17.3% (inactive).
For `CN(C)Cc1c(O)ccc2c1O/C(=C\C=C\c1ccccc1)C2=O`, the activity change, negative = cytotoxicity was -7.01% (inactive).
With `CCCNC(=O)[C@@H]1[C@@H](CO)[C@@H]2Cn3c(ccc(-c4ccccc4)c3=O)[C@H]1N2C(=O)CC` the activity change, negative = cytotoxicity was 14.5% (inactive).
For `CCCc1nc2ccc(NC(=O)c3cccs3)cc2c(=O)n1Cc1ccccc1Cl`, the activity change, negative = cytotoxicity was 3.49% (inactive).
For `C/C(=N\N(c1ccccc1)c1ccccc1)c1ccco1`, the activity change, negative = cytotoxicity was -1.2% (inactive).
With `O=C(O)c1cccc(N/N=C/c2cccs2)c1` the activity change, negative = cytotoxicity was -8.12% (inactive).
For `C[C@@H]1CN([C@@H](C)CO)S(=O)(=O)c2ccc(C#Cc3ccncc3)cc2O[C@H]1CN(C)C(=O)C1CCOCC1`, the activity change, negative = cytotoxicity was -7.5% (inactive).
For `COc1cccc(S(=O)(=O)N(C)C[C@H]2OCc3cnnn3CCCC(=O)N([C@@H](C)CO)C[C@H]2C)c1`, the activity change, negative = cytotoxicity was 0.226% (inactive).
For `CCCCN=C(NNc1ccc(Br)cc1)C(=O)OCC`, the activity change, negative = cytotoxicity was -5.32% (inactive).
With `COc1ccc(CNc2ncc(-c3ccc(F)cc3)n2C)c2ccccc12` the activity change, negative = cytotoxicity was 2.68% (inactive).
With `CC(=O)Nc1cc(C(=O)NCc2ccco2)ccc1Sc1ccc(F)cc1` the activity change, negative = cytotoxicity was 8.55% (inactive).
For `COC(=O)C[C@@H]1CC[C@@H]2[C@@H](COc3ccc(NC(=O)Cc4cccs4)cc3C(=O)N2C)O1`, the activity change, negative = cytotoxicity was -23.4% (inactive).
In the case of `O=C(CNC(=O)Cc1ccccc1)N=Nc1c(O)n(Cc2ccc3c(c2)OCO3)c2ccccc12`, the activity change, negative = cytotoxicity is reported as -1.52% (inactive).
With `O=C(Nc1nc(-c2ccc(F)c(F)c2)cs1)c1ccc(OCC2CCCO2)cc1` (stereo unspecified) the activity change, negative = cytotoxicity was 5.7% (inactive).
In the case of `COc1ccc(C=NNc2nc3ccccc3s2)cc1`, the activity change, negative = cytotoxicity is reported as 3.07% (inactive).
For `CCn1c(C)cc(C(=O)CN2C(=O)c3ccccc3S2(=O)=O)c1C`, the activity change, negative = cytotoxicity was 9.42% (inactive).
For `CC(Oc1cccc(Cl)c1)C(=O)NCCCCc1ccccc1` (stereo unspecified), the activity change, negative = cytotoxicity was 3.26% (inactive).
With `CC(C)(C)c1ccc(/C=N/Nc2ccc(C(=O)O)cc2)cc1` the activity change, negative = cytotoxicity was -3.68% (inactive).
In the case of `CC(=O)c1ccc(N=Nc2ccc(C)cc2)cc1`, the activity change, negative = cytotoxicity is reported as 2.05% (inactive).
In the case of `Cc1c(Cl)cnc(NC(=O)COC(=O)c2ccc3ncsc3c2)c1Cl`, the activity change, negative = cytotoxicity is reported as 12.1% (inactive).
For `O=C(NC1CCCC1)C(c1ccccc1)n1c(CSCCOc2ccccc2)nc2ccccc21` (stereo unspecified), the activity change, negative = cytotoxicity was -7.19% (inactive).
In the case of `CCOc1ccc(NC(=O)C(=O)N/N=C\c2ccc(CNS(=O)(=O)c3ccccc3)o2)cc1`, the activity change, negative = cytotoxicity is reported as -1.27% (inactive).
In the case of `Cc1ccc(/C=C2\SC(=S)N(CCC(=O)NNC(=O)c3ccccc3O)C2=O)cc1`, the activity change, negative = cytotoxicity is reported as 6.17% (inactive).
In the case of `CC(=O)c1ccc(NC(=O)c2noc3c2CCC3)cc1`, the activity change, negative = cytotoxicity is reported as -3.66% (inactive).
In the case of `COCc1cc(C)nc2sc(C(=O)NCCO)c(-n3cccc3)c12`, the activity change, negative = cytotoxicity is reported as 13.2% (inactive).
For `CCc1ccc(/C=C2\SC(=S)N(CCC(=O)Nc3cc(C)on3)C2=O)cc1`, the activity change, negative = cytotoxicity was 6.27% (inactive).
With `CCc1ccc(/C=C2\SC(=S)N(CCCC(=O)NC3=NCCS3)C2=O)cc1` the activity change, negative = cytotoxicity was 1.62% (inactive).
With `Cc1[nH]c(=S)sc1Cc1ccc(Cl)c(Cl)c1` the activity change, negative = cytotoxicity was 5.33% (inactive).
In the case of `COc1ccc(S(=O)(=O)N=Nc2c(O)[nH]c3ccccc23)cc1`, the activity change, negative = cytotoxicity is reported as 8.74% (inactive).
For `O=C(Nc1cccc(Oc2ccc3c(c2)C(=O)NC3=O)c1)c1cccs1`, the activity change, negative = cytotoxicity was -6.77% (inactive).
For `C(=N\Nc1ccc2ccccc2n1)/c1ccc2c(c1)OCO2`, the activity change, negative = cytotoxicity was -5.01% (inactive).
With `O=C1C(=O)N(CCS(=O)(=O)c2ccccc2)c2ccccc21` the activity change, negative = cytotoxicity was 12.4% (inactive).
For `CN(C)C(=O)c1cccc(-c2ccc(C3[C@@H]4CN(Cc5nccs5)C[C@H]3N4)cc2)c1` (stereo partly specified), the activity change, negative = cytotoxicity was -4.24% (inactive).
For `c1cncc(-c2ccc([C@@H]3[C@H]4CNC[C@@H]3N4CC3CCOCC3)cc2)c1`, the activity change, negative = cytotoxicity was 9.2% (inactive).
With `O=C1Nc2ccccc2C1=Nc1ccccc1-c1ccccc1` the activity change, negative = cytotoxicity was -7.56% (inactive).
In the case of `Cc1ccsc1C(=O)OCC(=O)NCCC1=CCCCC1`, the activity change, negative = cytotoxicity is reported as 2.01% (inactive).
In the case of `c1ccc(-c2ccc([C@H]3[C@H]4CNC[C@@H]3N4Cc3cc(-c4ccccc4)on3)cc2)cc1`, the activity change, negative = cytotoxicity is reported as -11.9% (inactive).
For `CCOC(=O)c1c(-c2ccc(C)cc2)csc1NC(=O)CCN1CCOCC1`, the activity change, negative = cytotoxicity was 3.44% (inactive).
For `COc1ccc(OC)c(-c2cc(C(F)(F)F)c3c(n2)sc2c(O)cc(=O)[nH]c23)c1`, the activity change, negative = cytotoxicity was -2.54% (inactive).
In the case of `Cc1csc(NC(=O)CCc2c(C)nc3cc(-c4ccc(Cl)cc4)nn3c2C)n1`, the activity change, negative = cytotoxicity is reported as 1.02% (inactive).
For `Nc1ccc2c(c1)OC1(CCCC1)O2`, the activity change, negative = cytotoxicity was -14.9% (inactive).
For `COc1ccc(NC(=O)c2cc3ccccc3oc2=O)cc1`, the activity change, negative = cytotoxicity was -20.8% (inactive).
For `CC(C)CC(NC(=O)c1cccs1)c1nnc(SCc2ccc(Cl)c(Cl)c2)n1C` (stereo unspecified), the activity change, negative = cytotoxicity was 6.55% (inactive).
In the case of `O=C(O)c1ccc2cc(-c3ccccc3)[nH]c2c1`, the activity change, negative = cytotoxicity is reported as -2.41% (inactive).
For `Cc1ccsc1/C=N/Nc1cccc(C(=O)O)c1`, the activity change, negative = cytotoxicity was -8.75% (inactive).
